Laboratory results taken from patent US9200046B2, “Reporter system for high throughput screening of compounds and uses thereof” (priority 2011, dated 2015).
Structures can show the parent of a compound that is named as a salt. Where two headings read alike, the source gives them in different places.

Target: Nrf2-Keap1 complex (Homo sapiens, UniProt Q14145)
Assay: cell-based
Type: cell-based
Conditions: for activation at 16 µM / activation at 32 µM: 3 h; for activation at 16 µM: read-out: Activation 100 nL; for activation at 32 µM: read-out: Activation 200 nL
[1] = Table 2, 100 nL compound, screen run at 16 and 32 μM, 3 hr
[2] = Table 2, 200 nL compound, screen run at 16 and 32 μM, 3 hr
[3] = Table 1A, 100 nL compound, screen run at 16 and 32 μM, 3 hr
[4] = Table 1A, 200 nL compound, screen run at 16 and 32 μM, 3 hr

Nrf2-Keap1 complex, sequence (Q14145 whole entry, one chain of several): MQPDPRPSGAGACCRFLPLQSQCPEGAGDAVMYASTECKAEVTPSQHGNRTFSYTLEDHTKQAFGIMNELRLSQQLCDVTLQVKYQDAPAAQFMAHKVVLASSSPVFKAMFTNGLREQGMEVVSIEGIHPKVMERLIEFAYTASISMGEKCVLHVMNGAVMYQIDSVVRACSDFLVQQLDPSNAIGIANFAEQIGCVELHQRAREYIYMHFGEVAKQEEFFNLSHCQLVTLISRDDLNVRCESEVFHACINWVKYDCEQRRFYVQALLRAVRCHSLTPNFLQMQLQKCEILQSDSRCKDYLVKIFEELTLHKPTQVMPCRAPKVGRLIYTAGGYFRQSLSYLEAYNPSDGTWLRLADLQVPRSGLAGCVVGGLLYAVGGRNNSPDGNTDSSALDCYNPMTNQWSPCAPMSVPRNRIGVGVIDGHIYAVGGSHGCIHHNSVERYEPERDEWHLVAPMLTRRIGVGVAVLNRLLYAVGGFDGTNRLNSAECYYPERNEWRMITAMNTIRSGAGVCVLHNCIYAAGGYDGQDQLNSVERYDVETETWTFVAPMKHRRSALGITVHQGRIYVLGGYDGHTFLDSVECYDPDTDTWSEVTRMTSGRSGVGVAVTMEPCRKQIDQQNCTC

O=C(/C=C/c1ccccc1)c1ccc(O[C@@H]2O[C@H](CO)[C@@H](O)[C@H](O)[C@H]2O)cc1O [2′,4′-DIHYDROXYCHALCONE4′-GLUCOSIDE]
Activation 100 nL: 33% | Activation 200 nL: 121% | 100 nL (luminescence) [1]: 1056 | 200 nL (luminescence) [2]: 2592

COc1cc([C@@H]2c3cc4c(cc3[C@@H](O)[C@H]3COC(=O)[C@H]23)OCO4)cc(OC)c1O [4′-DEMETHYLEPIPODOPHYLLOTOXIN]
100 nL (luminescence) [3]: 3188 | 200 nL (luminescence) [4]: 2844

C=C(C)[C@H]1Cc2c(ccc3c2O[C@@H]2COc4cc(OC)c(OC)cc4[C@@H]2C3=O)O1 [ROTENONE]
activation at 16 µM: 31% | activation at 32 µM: 30% | 100 nL (luminescence) [1]: 776 | 200 nL (luminescence) [2]: 1136

Nc1ncnc2c1ncn2[C@@H]1O[C@H](CO)[C@@H](O)[C@H]1O [ADENOSINE, reference compound]
100 nL (luminescence): 1100 | 200 nL (luminescence): 760 | hit strength in the screen (words): modest hits | activation at 16 µM: 61% | activation at 32 µM: 20%

COc1cc(OC)c2c(=O)c(O)c(-c3ccc(OC)c(OC)c3)oc2c1
Activation 100 nL: 29% | Activation 200 nL: 8% | 100 nL (luminescence) [1]: 760 | 200 nL (luminescence) [2]: 644

Cc1coc2c1C(=O)C(=O)c1c-2ccc2c1CCCC2(C)C [TANSHINONEIIA]
activation at 16 µM: 354% | activation at 32 µM: 87% | 100 nL (luminescence) [1]: 5092 | 200 nL (luminescence) [2]: 2452

CCCCC1C(=O)N(c2ccccc2)N(c2ccc(O)cc2)C1=O (stereo not shown) [OXYPHENBUTAZONE, reference compound]
Activation 100 nL: 113% | Activation 200 nL: 131% | 100 nL (luminescence) [1]: 1760 | 200 nL (luminescence) [2]: 3084

COc1cc([C@@H]2c3cc4c(cc3[C@H](OC(C)=O)[C@H]3COC(=O)[C@H]23)OCO4)cc(OC)c1OC [PODOPHYLLOTOXINACETATE]
Activation 100 nL: 40% | Activation 200 nL: 10% | 100 nL (luminescence) [1]: 900 | 200 nL (luminescence) [2]: 668

CC(CCc1ccccc1)NC(C)C(O)c1ccc(O)cc1 (stereo not shown) [NYLIDRINHYDROCHLORIDE, reference compound]
activation at 16 µM: 42% | activation at 32 µM: 22%

CC(=O)O[C@@H]1CC2C(C)(C)C(=O)C3OC3[C@]2(C)C2CC[C@@]3(C)[C@H](c4ccoc4)OC(=O)C4OC43[C@@]21C (stereo partly shown) [EPOXYGEDUNIN]
Activation 100 nL: 28% | Activation 200 nL: 43% | 100 nL (luminescence) [1]: 784 | 200 nL (luminescence) [2]: 988

CN(C)c1ccc(O)c2c1C[C@H]1C[C@H]3[C@H](N(C)C)C(O)=C(C(N)=O)C(=O)[C@@]3(O)C(O)=C1C2=O [MINOCYCLINEHYDROCHLORIDE, reference compound]
Neh2-luc reporter activation: 200% | activation at 16 µM: 326% | activation at 32 µM: 169%

S=c1ccss1 [3H-1,2-DITHIOLE-3-THIONE]
activation at 16 µM: 295% | activation at 32 µM: 127% | 100 nL (luminescence) [1]: 5416 | 200 nL (luminescence) [2]: 2832

OC[C@H]1O[C@H]([S-])[C@H](O)[C@@H](O)[C@@H]1O.[Au+] [AUROTHIOGLUCOSE, reference compound]
Activation 100 nL: 27% | Activation 200 nL: 1% | 100 nL (luminescence) [1]: 604 | 200 nL (luminescence) [2]: 360

COc1ccc2c(c1)OCC(=Cc1ccc(O)c(O)c1)C2=O
Activation 100 nL: 292% | Activation 200 nL: 169% | 100 nL (luminescence) [1]: 4822 | 200 nL (luminescence) [2]: 2904

[…](CAPE)
Activation 100 nL: 245% | Activation 200 nL: −14% | 100 nL (luminescence) [1]: 2508 | 200 nL (luminescence) [2]: 16

O=C1C(O)=C(O)C(=O)C(O)=C1O [TETROQUINONE]
activation at 16 µM: 26% | activation at 32 µM: 27% | 100 nL (luminescence) [1]: 908 | 200 nL (luminescence) [2]: 720

CC1(C)C=CC(=O)[C@@]2(C)C1CC(=O)[C@]1(C)C2CC[C@@]2(C)[C@H](c3ccoc3)OC(=O)C3OC321 (stereo partly shown) [DEACETOXY-7-OXISOGEDUNIN]
Activation 100 nL: 170% | Activation 200 nL: 178% | 100 nL (luminescence) [1]: 2960 | 200 nL (luminescence) [2]: 3040

NC(=O)c1ccc(N)nc1 [6-AMINONICOTINAMIDE]
activation at 16 µM: 26% | activation at 32 µM: 1% | 100 nL (luminescence) [3]: 756 | 200 nL (luminescence) [4]: 344

CC(C)=CCCC1(C)C=Cc2c(O)c3c(c(CC=C(C)C)c2O1)OC12C(=CCCC1C(C)(C)O[C@@]2(C/C=C(\C)C(=O)O)C(=O)O)C3=O (stereo partly shown) [GARCINOLICACID]
activation at 16 µM: 29% | activation at 32 µM: 33% | 100 nL (luminescence) [1]: 800 | 200 nL (luminescence) [2]: 832

CCOCN(C(=O)CCl)c1c(C)cccc1CC [ACETOCHLOR]
activation at 16 µM: 71% | activation at 32 µM: 112% | 100 nL (luminescence) [1]: 1320 | 200 nL (luminescence) [2]: 3024

O=C(O)c1cc(O)c2c(c1)[C@@H]([C@H]1c3cc(C(=O)O)cc(O)c3C(=O)c3c(O[C@H]4O[C@H](CO)[C@@H](O)[C@H](O)[C@H]4O)cccc31)c1cccc(O[C@H]3O[C@H](CO)[C@@H](O)[C@H](O)[C@H]3O)c1C2=O [SENNOSIDEA, reference compound]
100 nL (luminescence): 3204 | 200 nL (luminescence): 4 | activation at 16 µM: 141% | activation at 32 µM: -24%

O=C1CC(c2ccc(O)cc2)Oc2ccccc21 (stereo not shown) [4′-HYDROXYFLAVANONE]
activation at 16 µM: 158% | activation at 32 µM: 75% | 100 nL (luminescence) [1]: 1752 | 200 nL (luminescence) [2]: 2088

COC(=O)/C=C/C(C)=C\C=C\C(C)=C\C=C\C=C(C)\C=C\C=C(C)\C=C\C(=O)O [BIXIN]
100 nL (luminescence): 1880 | 200 nL (luminescence): 3036 | activation at 16 µM: 113% | activation at 32 µM: 113%

COc1ccc2cc1Oc1ccc(cc1)C[C@H]1c3c(cc4c(c3Oc3cc5c(cc3OC)CCN(C)[C@@H]5C2)OCO4)CCN1C [CEPHARANTHINE, reference compound]
activation at 16 µM: 98% | activation at 32 µM: 9% | 100 nL (luminescence) [3]: 2348 | 200 nL (luminescence) [4]: 584

CC(=O)O[C@H]1C[C@@H](OC(C)=O)C(C)(C)[C@@H]2CC(=O)[C@]3(C)[C@H](CC[C@@]4(C)[C@H](c5ccoc5)OC(=O)[C@H]5O[C@]543)[C@@]12C [7-DEACETOXY-7-OXOKHIVORIN]
Activation 100 nL: 168% | Activation 200 nL: 128% | 100 nL (luminescence) [1]: 2924 | 200 nL (luminescence) [2]: 2284

C=C(CC)C(=O)c1ccc(OCC(=O)O)c(Cl)c1Cl [reference compound]
activation at 16 µM: 139% | activation at 32 µM: 156% | 100 nL (luminescence) [1]: 2088 | 200 nL (luminescence) [2]: 3604

CNc1ccccc1C(=O)N1CCc2c([nH]c3ccccc23)C1=O [RHETSININE]
activation at 16 µM: 53% | activation at 32 µM: 4% | 100 nL (luminescence) [3]: 1076 | 200 nL (luminescence) [4]: 532

CC(C)c1cccc(=O)c(O)c1 [HINOKITIOL]
activation at 16 µM: 29% | activation at 32 µM: 1% | 100 nL (luminescence) [1]: 860 | 200 nL (luminescence) [2]: 372

COC(=O)c1c(C)cc(O)cc1O [METHYLORSELLINATE]
activation at 16 µM: 31% | activation at 32 µM: 1% | 100 nL (luminescence) [1]: 640 | 200 nL (luminescence) [2]: 368
